Measurements reported in the NIST ThermoML archive (doi:10.1021/acs.jced.7b01125).
Numbers after ± are expanded uncertainties.

Experiment: xn = mol fraction of the nth substance listed
Conditions: Gas, Buoyancy - hydrostatic balance with magnetic suspension - one sinker

[HH] [hydrogen] + C
Conditions | mass density [kg/m3]
240.07 K, 999 kPa, x2 = 0.9 | 7.556 ± 0.047
240.07 K, 1000 kPa, x2 = 0.4997 | 4.558 ± 0.034
240.07 K, 1999 kPa, x2 = 0.9 | 15.591 ± 0.049
240.07 K, 2000 kPa, x2 = 0.4997 | 9.174 ± 0.034
240.07 K, 3001 kPa, x2 = 0.9 | 24.162 ± 0.052
240.07 K, 3002 kPa, x2 = 0.4997 | 13.857 ± 0.037
240.07 K, 4001 kPa, x2 = 0.9 | 33.3 ± 0.055
240.07 K, 4003 kPa, x2 = 0.4997 | 18.584 ± 0.039
240.07 K, 5000 kPa, x2 = 0.4997 | 23.326 ± 0.043
240.07 K, 5001 kPa, x2 = 0.9 | 43.067 ± 0.058
240.07 K, 6003 kPa, x2 = 0.4997 | 28.124 ± 0.048
240.07 K, 6003 kPa, x2 = 0.9 | 53.504 ± 0.062
240.07 K, 7000 kPa, x2 = 0.4997 | 32.918 ± 0.054
240.07 K, 7005 kPa, x2 = 0.9 | 64.62 ± 0.067
240.07 K, 8003 kPa, x2 = 0.4997 | 37.747 ± 0.061
240.07 K, 9002 kPa, x2 = 0.4997 | 42.553 ± 0.069
240.07 K, 10006 kPa, x2 = 0.4997 | 47.368 ± 0.077
240.07 K, 11006 kPa, x2 = 0.4997 | 52.137 ± 0.086
240.07 K, 11011 kPa, x2 = 0.9499 | 128.048 ± 0.085
240.07 K, 12005 kPa, x2 = 0.4997 | 56.857 ± 0.095
240.07 K, 12014 kPa, x2 = 0.9499 | 142.433 ± 0.083
240.07 K, 13003 kPa, x2 = 0.4997 | 61.522 ± 0.1
240.07 K, 13016 kPa, x2 = 0.9499 | 155.953 ± 0.081
240.07 K, 14011 kPa, x2 = 0.4997 | 66.173 ± 0.11
240.07 K, 14016 kPa, x2 = 0.9499 | 168.365 ± 0.078
240.07 K, 15002 kPa, x2 = 0.4997 | 70.674 ± 0.12
240.07 K, 15021 kPa, x2 = 0.9499 | 179.661 ± 0.075
240.07 K, 16013 kPa, x2 = 0.4997 | 75.179 ± 0.12
240.07 K, 16020 kPa, x2 = 0.9499 | 189.762 ± 0.072
240.07 K, 17008 kPa, x2 = 0.4997 | 79.535 ± 0.13
240.07 K, 17018 kPa, x2 = 0.9 | 179.188 ± 0.077
240.07 K, 17021 kPa, x2 = 0.9499 | 198.87 ± 0.07
240.07 K, 18016 kPa, x2 = 0.4997 | 83.857 ± 0.14
240.07 K, 18016 kPa, x2 = 0.9499 | 207.026 ± 0.069
240.07 K, 18030 kPa, x2 = 0.9 | 187.542 ± 0.075
240.07 K, 19008 kPa, x2 = 0.4997 | 88.009 ± 0.14
240.07 K, 19013 kPa, x2 = 0.9499 | 214.425 ± 0.068
240.07 K, 19032 kPa, x2 = 0.9 | 195.115 ± 0.074
240.07 K, 19589 kPa, x2 = 0.9 | 199.054 ± 0.074
240.07 K, 19703 kPa, x2 = 0.4997 | 90.858 ± 0.14
240.07 K, 19891 kPa, x2 = 0.9499 | 220.394 ± 0.067
240.08 K, 999 kPa, x2 = 0.9499 | 7.937 ± 0.049
240.08 K, 1998 kPa, x2 = 0.9499 | 16.447 ± 0.051
240.08 K, 3000 kPa, x2 = 0.9499 | 25.62 ± 0.055
240.08 K, 3999 kPa, x2 = 0.9499 | 35.505 ± 0.059
240.08 K, 5004 kPa, x2 = 0.9499 | 46.287 ± 0.063
240.08 K, 6000 kPa, x2 = 0.9499 | 57.87 ± 0.068
240.08 K, 7002 kPa, x2 = 0.9499 | 70.478 ± 0.073
240.08 K, 8004 kPa, x2 = 0.9499 | 84.026 ± 0.078
240.08 K, 8008 kPa, x2 = 0.9 | 76.371 ± 0.07
240.08 K, 9003 kPa, x2 = 0.9499 | 98.317 ± 0.082
240.08 K, 9004 kPa, x2 = 0.9 | 88.565 ± 0.074
240.08 K, 10004 kPa, x2 = 0.9 | 101.131 ± 0.077
240.08 K, 10007 kPa, x2 = 0.9499 | 113.159 ± 0.085
240.08 K, 11012 kPa, x2 = 0.9 | 113.893 ± 0.079
240.08 K, 12006 kPa, x2 = 0.9 | 126.282 ± 0.081
240.08 K, 13016 kPa, x2 = 0.9 | 138.41 ± 0.081
240.08 K, 14006 kPa, x2 = 0.9 | 149.671 ± 0.08
240.08 K, 15020 kPa, x2 = 0.9 | 160.417 ± 0.079
240.08 K, 16024 kPa, x2 = 0.9 | 170.25 ± 0.078
250.03 K, 1001 kPa, x2 = 0.4997 | 4.372 ± 0.033
250.03 K, 2000 kPa, x2 = 0.4997 | 8.784 ± 0.034
250.03 K, 2990 kPa, x2 = 0.4997 | 13.19 ± 0.036
250.03 K, 4000 kPa, x2 = 0.4997 | 17.721 ± 0.038
250.03 K, 5000 kPa, x2 = 0.4997 | 22.235 ± 0.041
250.03 K, 7001 kPa, x2 = 0.4997 | 31.315 ± 0.05
250.03 K, 8002 kPa, x2 = 0.4997 | 35.861 ± 0.056
250.04 K, 999 kPa, x2 = 0.9499 | 7.587 ± 0.047
250.04 K, 1999 kPa, x2 = 0.9499 | 15.652 ± 0.049
250.04 K, 3000 kPa, x2 = 0.9 | 22.884 ± 0.049
250.04 K, 3002 kPa, x2 = 0.9499 | 24.252 ± 0.052
250.04 K, 4000 kPa, x2 = 0.9 | 31.364 ± 0.052
250.04 K, 4006 kPa, x2 = 0.9499 | 33.422 ± 0.055
250.04 K, 5002 kPa, x2 = 0.9 | 40.328 ± 0.054
250.04 K, 5005 kPa, x2 = 0.9499 | 43.167 ± 0.058
250.04 K, 5999 kPa, x2 = 0.4997 | 26.765 ± 0.045
250.04 K, 6001 kPa, x2 = 0.9499 | 53.515 ± 0.062
250.04 K, 6004 kPa, x2 = 0.9 | 49.775 ± 0.057
250.04 K, 7002 kPa, x2 = 0.9 | 59.655 ± 0.06
250.04 K, 7002 kPa, x2 = 0.9499 | 64.575 ± 0.066
250.04 K, 8004 kPa, x2 = 0.9 | 70.009 ± 0.063
250.04 K, 9002 kPa, x2 = 0.4997 | 40.398 ± 0.062
250.04 K, 9006 kPa, x2 = 0.9499 | 88.515 ± 0.072
250.04 K, 9011 kPa, x2 = 0.9 | 80.795 ± 0.066
250.04 K, 10001 kPa, x2 = 0.4997 | 44.91 ± 0.069
250.04 K, 10014 kPa, x2 = 0.9 | 91.789 ± 0.068
250.04 K, 11004 kPa, x2 = 0.4997 | 49.405 ± 0.076
250.04 K, 11010 kPa, x2 = 0.9 | 102.827 ± 0.07
250.04 K, 12004 kPa, x2 = 0.4997 | 53.836 ± 0.084
250.04 K, 13005 kPa, x2 = 0.4997 | 58.27 ± 0.091
250.04 K, 14003 kPa, x2 = 0.4997 | 62.615 ± 0.098
250.04 K, 15009 kPa, x2 = 0.4997 | 66.921 ± 0.1
250.04 K, 16007 kPa, x2 = 0.4997 | 71.14 ± 0.11
250.04 K, 17008 kPa, x2 = 0.4997 | 75.293 ± 0.12
250.04 K, 18013 kPa, x2 = 0.4997 | 79.385 ± 0.12
250.04 K, 19258 kPa, x2 = 0.4997 | 84.34 ± 0.13
250.05 K, 1000 kPa, x2 = 0.9 | 7.23 ± 0.045
